Where a name gives a salt, the structure may show the parent alone.
Tests used:
[1] = molecular target: T1, human B1R receptor (Homo sapiens, UniProt P46663); assay: Functional study on the bradykinin receptor 1 (B1R), FLIPR Ca2+ assay, hB1R cells; format: cell-based; conditions: agonist Lys-Des-Arg9-bradykinin 0.5 nM, % inhibition compared with the maximum achievable inhibition; for inhibition at 10 µM: CHO-K1, test substance 10 μM, read-out: B1R Antagonism, human [10 μM] % Inhibition; for B1R Antagonism, human [10 μM] % Inhibition: test substance 10 μM, hB1R CHO K1 cells
T1 construct: host or cells: CHO K1 cells (Chinese hamster ovary), stably transfected
T1 sequence (P46663 1-353): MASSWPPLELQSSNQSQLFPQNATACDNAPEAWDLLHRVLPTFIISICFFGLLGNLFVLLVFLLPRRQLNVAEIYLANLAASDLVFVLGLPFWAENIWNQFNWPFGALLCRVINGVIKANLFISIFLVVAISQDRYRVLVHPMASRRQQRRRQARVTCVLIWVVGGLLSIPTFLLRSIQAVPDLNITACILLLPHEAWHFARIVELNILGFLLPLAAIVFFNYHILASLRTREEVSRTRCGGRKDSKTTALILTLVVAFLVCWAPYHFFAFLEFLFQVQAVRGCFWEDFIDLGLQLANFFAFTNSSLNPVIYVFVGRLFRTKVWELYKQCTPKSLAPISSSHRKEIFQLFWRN
Method in brief: (§1)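 CHO K1 cells stably expressing human or rat B1R were loaded with Fluo-4 and read on a FLIPR (ex 488/em 540 nm, peak fluorescence). Test compounds at 10 μM were added first, then after 10 min agonist: Lys-Des-Arg9-bradykinin 0.5 nM for hB1R, Des-Arg9-bradykinin 100 nM for rB1R; % inhibition versus maximum inhibition.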

[2] = molecular target: T2, B1R receptor of the rat (Rattus norvegicus, UniProt P97583); assay: Functional study on the bradykinin receptor 1 (B1R), FLIPR Ca2+ assay, rB1R cells; format: cell-based; conditions: agonist Des-Arg9-bradykinin 100 nM, % inhibition compared with the maximum achievable inhibition; for inhibition at 10 µM: CHO-K1, test substance 10 μM, read-out: B1R Antagonism, rat [10 μM] % Inhibition; for B1R Antagonism, rat [10 μM] % Inhibition: test substance 10 μM, rB1R CHO K1 cells
T2 construct: host or cells: CHO K1 cells (Chinese hamster ovary), stably transfected
T2 sequence (P97583 1-337): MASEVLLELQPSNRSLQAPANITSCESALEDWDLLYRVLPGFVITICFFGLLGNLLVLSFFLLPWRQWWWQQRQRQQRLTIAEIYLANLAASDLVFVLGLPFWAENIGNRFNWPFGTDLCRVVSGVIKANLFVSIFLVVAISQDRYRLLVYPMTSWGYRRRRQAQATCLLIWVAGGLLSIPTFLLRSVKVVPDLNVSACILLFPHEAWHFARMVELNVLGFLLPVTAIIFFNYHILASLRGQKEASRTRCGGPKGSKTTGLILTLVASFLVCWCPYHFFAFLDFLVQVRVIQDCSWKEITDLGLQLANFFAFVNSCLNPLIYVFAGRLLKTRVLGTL
Method in brief: as §1

inhibition at 10 µM [1] [%] | inhibition at 10 µM [2] [%] | B1R Antagonism, human [10 μM] % Inhibition [1] [%] | B1R Antagonism, rat [10 μM] % Inhibition [2] [%] | Compound
87 | 103 |  |  | COc1cc(C)c(S(=O)(=O)N2CCCCC2COCC(=O)N2CCN(c3cccc(Cl)c3)CC2)c(C)c1 (stereo not drawn) [Example 511, 1-(4-(3-chlorophenyl)piperazin-1-yl)-2-((1-(4-methoxy-2,6-dimethylphenylsulfonyl)piperidin-2-yl)methoxy)ethanone]
94.6 | 99.5 |  |  | COc1cc(C)c(S(=O)(=O)N2CCCC2COCC(=O)NCc2ccccc2N2CCN(C)CC2)c(C)c1 (stereo not drawn) [Example 473, 2-((1-(4-methoxy-2,6-dimethylphenylsulfonyl)pyrrolidin-2-yl)methoxy)-N-(2-(4-methylpiperazin-1-yl)benzyl)acetamide]
88.6 | 99.8 |  |  | CCc1ccc(CC2CCCCN2C(=O)COCC2CCCCN2S(=O)(=O)c2c(C)cc(C)cc2C)nc1 (stereo not drawn) [Example 228, 1-(2-((5-ethylpyridin-2-yl)methyl)piperidin-1-yl)-2-((1-(mesitylsulfonyl)piperidin-2-yl)methoxy)ethanone]
105 | 98.2 |  |  | O=C(COCC1CCCN1S(=O)(=O)c1c(Cl)cc(Cl)cc1Cl)N1CCN(CCc2ccccc2)CC1 (stereo not drawn) [Example 329, 1-(4-phenethylpiperazin-1-yl)-2-((1-(2,4,6-trichlorophenylsulfonyl)pyrrolidin-2-yl)methoxy)ethanone]
84.7 | 0 |  |  | CN1CCN(C2CCN(C(=O)COCC3CCCCN3S(=O)(=O)c3ccc(Cl)c(Cl)c3)CC2)CC1 (stereo not drawn) [Example 28, 2-[1-(3,4-dichloro-phenylsulfonyl)-piperidin-2-ylmethoxy]-1-[4-(4-methyl-piperazin-1-yl)-piperidin-1-yl]-ethanone]
105 | 103 |  |  | COc1cc(C)c(S(=O)(=O)N2CCCCC2COCC(=O)N2CCC(CCN3CCCC3)CC2)c(C)c1 (stereo not drawn) [Example 94, 2-((1-(4-methoxy-2,6-dimethylphenylsulfonyl)piperidin-2-yl)methoxy)-1-(4-(2-(pyrrolidin-1-yl)ethyl)piperidin-1-yl)ethanone hydrochloride]
 |  | 65.25 | 103.41 | 1-(4-(3-chloro-5-(trifluoromethyl)pyridin-2-yl)piperazin-1-yl)-2-((1-(2,6-dichlorophenylsulfonyl)piperidin-2-yl)methoxy)ethanone [Example 485]
103 | 31.7 |  |  | O=C(COCC1Cc2ccccc2CN1S(=O)(=O)c1ccccc1)Nc1cccc(N2CCOCC2)c1 (stereo not drawn) [Example 264, N-(3-morpholinophenyl)-2-((2-(phenylsulfonyl)-1,2,3,4-tetrahydroisoquinolin-3-yl)methoxy)acetamide]
59.6 | 34 |  |  | CN1CCC(N2CCN(C(=O)COCC3CCCN3S(=O)(=O)c3ccc(Cl)c(Cl)c3)CC2)CC1 (stereo not drawn) [Example 62, 2-[1-(3,4-dichloro-phenylsulfonyl)-pyrrolidin-2-ylmethoxy]-1-[4-(1-methyl-piperidin-4-yl)-piperazin-1-yl]-ethanone]
96.7 | 103 |  |  | CCN1CCN(C(=O)COCC2CCCN2S(=O)(=O)c2c(Cl)cc(Cl)cc2Cl)CC1 (stereo not drawn) [Example 295, 1-(4-ethylpiperazin-1-yl)-2-((1-(2,4,6-trichlorophenylsulfonyl)pyrrolidin-2-yl)methoxy)ethanone]
104 | 100 |  |  | COc1cc(C)c(S(=O)(=O)N2CCCCC2COCC(=O)N2CCN(Cc3nc(-c4ccccc4)[nH]c3Cl)CC2)c(C)c1 (stereo not drawn) [Example 197, 1-(4-((5-chloro-2-phenyl-1H-imidazol-4-yl)methyl)piperazin-1-yl)-2-((1-(4-methoxy-2,6-dimethylphenylsulfonyl)piperidin-2-yl)methoxy)ethanone]
101 | 104 |  |  | COc1cc(C)c(S(=O)(=O)N2CCCCC2COCC(=O)Nc2cccc(CN3CCCCC3)c2)c(C)c1 (stereo not drawn) [Example 418, 2-((1-(4-methoxy-2,6-dimethylphenylsulfonyl)piperidin-2-yl)methoxy)-N-(3-(piperidin-1-ylmethyl)phenyl)acetamide]
 |  | 53.94 | 99.49 | COc1cc(C)c(S(=O)(=O)N2CCCCC2COCC(=O)N2Cc3ccncc3C2)c(C)c1 (stereo not drawn) [Example 206, 2-((1-(4-methoxy-2,6-dimethylphenylsulfonyl)piperidin-2-yl)methoxy)-1-(1H-pyrrol[3,4-c]pyridin-2(3H)-yl)ethanone]
43.7 | 0 |  |  | COc1ccc(N2CCN(C(=O)COCC3CCCCN3S(=O)(=O)c3ccc(Cl)c(Cl)c3)CC2)cc1 (stereo not drawn) [Example 84, 2-[1-(3,4-dichloro-phenylsulfonyl)-piperidin-2-ylmethoxy]-1-[4-(4-methoxy-phenyl)-piperazin-1-yl]-ethanone]
85.1 | 98.8 |  |  | COc1cc(C)c(S(=O)(=O)N2CCCCC2COCC(=O)NCc2cccc(Oc3cnccn3)c2)c(C)c1 (stereo not drawn) [Example 195, 2-((1-(4-methoxy-2,6-dimethylphenylsulfonyl)piperidin-2-yl)methoxy)-N-(3-(pyrazin-2-yloxy)benzyl)acetamide]
40.6 | 99.5 |  |  | COc1cc(C)c(S(=O)(=O)N2CCCC2COCC(=O)Nc2ccc(N3CCOCC3)c(Cl)c2)c(C)c1 (stereo not drawn) [Example 493, N-(3-chloro-4-morpholinophenyl)-2-((1-(4-methoxy-2,6-dimethylphenylsulfonyl)pyrrolidin-2-yl)methoxy)acetamide]
106 | 100 |  |  | COc1cc(C)c(S(=O)(=O)N2CCCCC2COCC(=O)N2CCN(C3CCC(C)CC3)CC2)c(C)c1 (stereo not drawn) [Example 105, 2-((1-(4-methoxy-2,6-dimethylphenylsulfonyl)piperidin-2-yl)methoxy)-1-(4-(4-methylcyclohexyl)piperazin-1-yl)ethanone]
103 | 105 |  |  | O=C(COCC1CCCCN1S(=O)(=O)c1c(Cl)cccc1Cl)N1CCC(N2CCCCC2)CC1 (stereo not drawn) [Example 336, 1-(1,4′-bipiperidin-1′-yl)-2-((1-(2,6-dichlorophenylsulfonyl)piperidin-2-yl)methoxy)ethanone]
66.4 | 101 |  |  | COc1cc(C)c(S(=O)(=O)N2CCCC2COCC(=O)NCCCCN2CCCC2)c(C)c1 (stereo not drawn) [Example 523, 2-((1-(4-methoxy-2,6-dimethylphenylsulfonyl)pyrrolidin-2-yl)methoxy)-N-(4-(pyrrolidin-1-yl)butyl)acetamide]
107 | 100 |  |  | COc1cc(C)c(S(=O)(=O)N2CCCCC2COCC(=O)N2CCN(CCC3CCN(C)CC3)CC2)c(C)c1 (stereo not drawn) [Example 212, 2-((1-(4-methoxy-2,6-dimethylphenylsulfonyl)piperidin-2-yl)methoxy)-1-(4-(2-(1-methylpiperidin-4-yl)ethyl)piperazin-1-yl)ethanone]
101 | 98 |  |  | COc1ccc(S(=O)(=O)N2CCCCC2COCC(=O)N2CCN(C3CCN(C)CC3)CC2)c2ccccc12 (stereo not drawn) [Example 174, 2-((1-(4-methoxynaphthalen-1-ylsulfonyl)piperidin-2-yl)methoxy)-1-(4-(1-methylpiperidin-4-yl)piperazin-1-yl)ethanone dihydrochloride]
90.8 | 99.7 |  |  | COc1cc(C)c(S(=O)(=O)N2CCCC2COCC(=O)N2CCCCC2Cc2ccccn2)c(C)c1 (stereo not drawn) [Example 449, 2-((1-(4-methoxy-2,6-dimethylphenylsulfonyl)pyrrolidin-2-yl)methoxy)-1-(2-(pyridin-2-ylmethyl)piperidin-1-yl)ethanone]
40.2 | 102 |  |  | COc1cc(C)c(S(=O)(=O)N2CCCCC2COCC(=O)N2CCN(Cc3c(C)cc(C)cc3C)CC2)c(C)c1 (stereo not drawn) [Example 383, 2-((1-(4-methoxy-2,6-dimethylphenylsulfonyl)piperidin-2-yl)methoxy)-1-(4-(2,4,6-trimethylbenzyl)piperazin-1-yl)ethanone]
62.1 | 101 |  |  | COc1cc(C)c(S(=O)(=O)N2CCCCC2COCC(=O)N(C)C(CN2CCOCC2)c2ccccc2)c(C)c1 (stereo not drawn) [Example 368, 2-((1-(4-methoxy-2,6-dimethylphenylsulfonyl)piperidin-2-yl)methoxy)-N-methyl-N-(2-morpholino-1-phenylethyl)acetamide]

— patent publication US8435978B2, “Substituted sulfonamide compounds” (Gruenenthal GmbH, priority 2006, dated 2013)
